Earlier results on one compound are cited in patent publication US20040265249A1, “Composition for protecting skin from damaging effects of ultraviolet light” (Desert Whale Jojoba Company, priority 2003, published 2004).

For this data set the following is noted: Yagi K, Ohishi N, 1979.

With `COc1cc(/C=C/C(=O)O)ccc1O` [ferulic acid], the antioxidant action result is given as “can scavenge free radicals”.
